Experimental data published in EPA's ToxRefDB 2.

Key:
rat [1] = settings: Multigenerational reproductive toxicity study, other, Oral, Feed, dose end: 2 generation
rat [2] = settings: Combined chronic toxicity/carcinogenicity, sprague dawley, Oral, Feed, dose end: 24 month, group: systemic
rat [3] = settings: Subchronic oral toxicity in rodents, other, Feed, dose end: 90 day, group: systemic
mouse [4] = settings: Subchronic oral toxicity in rodents, cd1, Feed, dose end: 13 week, group: systemic
dog [5] = settings: Chronic toxicity; beagle; Oral; Feed; dose end: 52 week; group: systemic; systemic / pathology microscopic / eye / [other] + systemic / pathology microscopic / eye / cataract + systemic / pathology microscopic / …
dog [6] = settings: Subchronic oral toxicity in nonrodent, beagle, Feed, dose end: 91 day, group: systemic
mouse [7] = settings: Carcinogenicity, cd1, Oral, Feed, dose end: 18 month, group: systemic
dog [8] = settings: Subchronic oral toxicity in nonrodent, beagle, Capsule, dose end: 90 day, group: systemic
rat [9] = settings: Subchronic oral toxicity in rodents, wistar, Feed, dose end: 28 day, group: systemic
rat [10] = settings: Subchronic oral toxicity in rodents, wistar, Feed, dose end: 90 day, group: systemic
rat [11] = settings: Prenatal developmental toxicity study, wistar, Oral, Gavage/Intubation, dose end: 19 GD
[12] = group: offspring, systemic / in life observation / body weight / litter weight + developmental / offspring survival late / viability index / viability index
[13] = group: parental, systemic / clinical chemistry / alanine aminotransferase (alt/sgpt) / alanine aminotransferase (alt/sgpt)
[14] = group: parental, systemic / clinical chemistry / sorbitol dehydrogenase / sorbitol dehydrogenase + systemic / clinical chemistry / alanine aminotransferase (…
[15] = systemic / hematology / anemia / anemia - hemolytic + systemic / in life observation / body weight / body weight gain + systemic / …
[16] = systemic / clinical chemistry / globulins / globulins
[17] = systemic / hematology / erythrocyte (rbc) count differential / erythrocyte (rbc) + systemic / hematology / hemoglobin (hgb) / hemoglobin (…
[18] = systemic / hematology / platelet / platelet
[19] = systemic / hematology / anemia / anemia - nos + systemic / hematology / erythrocyte (rbc) count differential / erythrocyte (rbc) + systemic…
[20] = systemic / pathology microscopic / liver / fatty change + systemic / pathology microscopic / liver / necrosis + systemic / pathology …
[21] = systemic / clinical chemistry / protein / protein + systemic / in life observation / clinical signs / vomiting + systemic / organ weight / …
[22] = systemic / clinical chemistry / calcium / calcium + systemic / clinical chemistry / phosphorus / phosphorus + systemic / pathology …
[23] = systemic / pathology microscopic / kidney / hyaline droplet
[24] = systemic / pathology microscopic / kidney / hyaline droplet + systemic / clinical chemistry / alanine aminotransferase (alt/sgpt) / alanine …
[25] = group: developmental, developmental / developmental malformation / bone / full supernumerary
[26] = group: maternal, systemic / organ weight / liver / absolute + systemic / pathology microscopic / kidney / vacuolization + systemic / pathology microscopic / …

What does the source list for `CC1(c2ccc(Oc3ccccc3)cc2)OC(=O)N(Nc2ccccc2)C1=O` (configuration not stated) [Famoxadone]?
LOAEL (rat [1]; group: offspring, systemic / in life observation / body weight / litter weight): 53.3 mg/kg/day; LEL (rat [1]; [12]): 53.3 mg/kg/day; NEL (rat [1]; [12]): 14.2 mg/kg/day; NOAEL (rat [1]; [12]): 14.2 mg/kg/day; LEL (rat [1]; [13]): 1.45 mg/kg/day; NEL (rat [1]; [13]): < 1.45 mg/kg/day; LOAEL (rat [1]; [14]): 44.7 mg/kg/day; NOAEL (rat [1]; [14]): 11.3 mg/kg/day; LOAEL (rat [2]; systemic / hematology / anemia / anemia - hemolytic + systemic / in life observation / body weight / body weight gain): 10.7 mg/kg/day; LEL (rat [2]; [15]): 10.7 mg/kg/day; NEL (rat [2]; [15]): 2.15 mg/kg/day; NOAEL (rat [2]; [15]): 2.15 mg/kg/day; LEL (rat [3]; [16]): 3.34 mg/kg/day; NEL (rat [3]; [16]): < 3.34 mg/kg/day; LOAEL (rat [3]; [17]): 13 mg/kg/day; NOAEL (rat [3]; [17]): 3.34 mg/kg/day; LEL (mouse [4]; [18]): 5.89 mg/kg/day; NEL (mouse [4]; [18]): < 5.89 mg/kg/day; NOAEL (mouse [4]; systemic / organ weight / liver / absolute + systemic / organ weight / liver / relative to body weight + systemic / clinical chemistry / …): 62.4 mg/kg/day; LOAEL (mouse [4]; systemic / organ weight / liver / absolute + systemic / organ weight / liver / relative to body weight + systemic / hematology / anemia / …): 534 mg/kg/day; LEL (dog [5]): 8.8 mg/kg/day; LOAEL (dog [5]): 8.8 mg/kg/day; NEL (dog [5]): 1.2 mg/kg/day; NOAEL (dog [5]): 1.2 mg/kg/day; LEL (dog [6]; [19]): 1.4 mg/kg/day; NEL (dog [6]; [19]): < 1.4 mg/kg/day; LOAEL (dog [6]; systemic / pathology microscopic / eye / cataract + systemic / pathology microscopic / eye / cataract, cortical): 10 mg/kg/day; NOAEL (dog [6]; systemic / pathology microscopic / eye / cataract + systemic / pathology microscopic / eye / cataract, cortical + systemic / clinical …): 1.3 mg/kg/day; LEL (mouse [7]; systemic / organ weight / liver / absolute + systemic / organ weight / liver / relative to body weight): 95.6 mg/kg/day; LOAEL (mouse [7]; [20]): 274 mg/kg/day; NEL (mouse [7]; [20]): 6.78 mg/kg/day; NOAEL (mouse [7]; [20]): 95.6 mg/kg/day

With `N#CCNC(=O)c1cnccc1C(F)(F)F` [Flonicamid] as the molecule, how does the LEL (dog [8]; [21]) read?
Its LEL is 20 mg/kg/day.

And the LOAEL (dog [8]; [21])?
The LOAEL was 20 mg/kg/day.

And the NOAEL (dog [8]; [21])?
Its NOAEL is 8 mg/kg/day.

What about the NEL (dog [8]; systemic / in life observation / clinical signs / ataxia + systemic / in life observation / clinical signs / defecation (diarrhea) + …) of the same molecule?
Its NEL is 8 mg/kg/day.

And the LEL (rat [9]; [22])?
Its LEL is 7.47 mg/kg/day.

And the NEL (rat [9]; [22])?
Its NEL is 3.61 mg/kg/day.

And the NOAEL (rat [9]; [22])?
The NOAEL was 7.47 mg/kg/day.

What about the LOAEL (rat [9]; [23]) of the same molecule?
Its LOAEL is 36.5 mg/kg/day.

And the LEL (rat [10]; [23])?
The LEL was 12.1 mg/kg/day.

What about the LOAEL (rat [10]; [23]) of the same molecule?
The LOAEL was 60 mg/kg/day.

What about the NEL (rat [10]; [24]) of the same molecule?
The NEL was 3.08 mg/kg/day.

And the NOAEL (rat [10]; [24])?
The NOAEL was 12.1 mg/kg/day.

What about the LEL (rat [11]; [25]) of the same molecule?
The LEL was 500 mg/kg/day.

And the LOAEL (rat [11]; [25])?
Its LOAEL is 500 mg/kg/day.

And the NEL (rat [11]; [25])?
Its NEL is 100 mg/kg/day.

What about the NOAEL (rat [11]; [25]) of the same molecule?
The NOAEL was 100 mg/kg/day.

What about the LEL (rat [11]; [26]) of the same molecule?
Its LEL is 500 mg/kg/day.

What about the LOAEL (rat [11]; [26]) of the same molecule?
Its LOAEL is 500 mg/kg/day.

And the NEL (rat [11]; [26])?
Its NEL is 100 mg/kg/day.

And the NOAEL (rat [11]; [26])?
The NOAEL was 100 mg/kg/day.
